Data: patent US20090018134A1, “Compounds - 945” (AstraZeneca AB, priority 2007, published 2009)
pIC50: −log10 of the molar value.

Target: T1, mTOR (Homo sapiens, UniProt P42345)
T1 construct: FLAG; made in house
Test: In Vitro mTOR Kinase Assay (Echo), Test (a)(ii)
Type: biochemical
Settings: table of enzyme assay Test (a)(ii); read-out: Test (a)(ii) IC50
In short: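 FLAG-tagged human mTOR truncation (residues 1362-2549) expressed in HEK293 cells and FLAG-purified. Compounds dispensed acoustically, reaction 2 h at room temperature, stopped with EDTA. Phosphorylation of biotinylated peptide detected by AlphaScreen with anti-p70 S6K (T389) antibody overnight; IC50 reported.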

T1 sequence (P42345 1362-2549): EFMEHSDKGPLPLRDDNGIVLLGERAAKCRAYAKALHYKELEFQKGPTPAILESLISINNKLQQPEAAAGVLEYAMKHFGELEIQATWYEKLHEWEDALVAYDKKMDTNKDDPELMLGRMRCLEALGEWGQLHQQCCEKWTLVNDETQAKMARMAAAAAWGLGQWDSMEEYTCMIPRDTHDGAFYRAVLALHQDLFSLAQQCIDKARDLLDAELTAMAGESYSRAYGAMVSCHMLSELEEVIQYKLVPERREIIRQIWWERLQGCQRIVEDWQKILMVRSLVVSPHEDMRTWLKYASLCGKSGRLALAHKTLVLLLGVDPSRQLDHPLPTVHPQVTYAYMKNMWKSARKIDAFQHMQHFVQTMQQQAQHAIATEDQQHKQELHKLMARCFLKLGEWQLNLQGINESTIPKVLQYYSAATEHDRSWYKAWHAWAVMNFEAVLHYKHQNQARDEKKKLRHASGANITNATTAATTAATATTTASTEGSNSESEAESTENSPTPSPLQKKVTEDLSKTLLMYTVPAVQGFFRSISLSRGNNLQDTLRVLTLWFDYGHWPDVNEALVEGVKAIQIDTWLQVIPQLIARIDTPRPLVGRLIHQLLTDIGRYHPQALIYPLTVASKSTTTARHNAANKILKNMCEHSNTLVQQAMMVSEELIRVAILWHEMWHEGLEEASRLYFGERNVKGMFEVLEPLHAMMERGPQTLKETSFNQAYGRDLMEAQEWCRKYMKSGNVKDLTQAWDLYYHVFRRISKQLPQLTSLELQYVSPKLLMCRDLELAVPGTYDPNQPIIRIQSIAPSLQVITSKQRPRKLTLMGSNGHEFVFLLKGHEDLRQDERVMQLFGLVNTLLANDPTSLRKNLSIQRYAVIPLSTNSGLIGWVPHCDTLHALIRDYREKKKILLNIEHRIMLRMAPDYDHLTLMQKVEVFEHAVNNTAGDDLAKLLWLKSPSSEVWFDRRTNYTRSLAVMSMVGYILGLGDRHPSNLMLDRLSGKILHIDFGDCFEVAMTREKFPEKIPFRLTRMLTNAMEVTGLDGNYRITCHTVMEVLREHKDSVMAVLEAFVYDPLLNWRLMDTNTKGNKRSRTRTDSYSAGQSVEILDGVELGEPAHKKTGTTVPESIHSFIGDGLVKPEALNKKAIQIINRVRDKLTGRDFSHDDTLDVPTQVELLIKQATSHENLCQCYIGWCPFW

Row | SMILES | pIC50
1 | CNC(=O)Nc1ccc(-c2nc(N3[C@@H](C)COC[C@@H]3C)cc(C3(S(=O)(=O)c4ccccc4)CC3)n2)cc1 [Example 93a, 1-[4-[4-[1-(benzenesulfonyl)cyclopropyl]-6-[(3S,5S)-3,5-dimethylmorpholin-4-yl]pyrimidin-2-yl]phenyl]-3-methylurea] | 8.52
2 | C[C@H]1COC[C@H](C)N1c1cc(C2(S(=O)(=O)c3ccccc3)CC2)nc(-c2ccc(NC(=O)NCCF)cc2)n1 [Example 93c, 1-[4-[4-[1-(benzenesulfonyl)cyclopropyl]-6-[(3S,5S)-3,5-dimethylmorpholin-4-yl]pyrimidin-2-yl]phenyl]-3-(2-fluoroethyl)urea] | 8.54
3 | C[C@H]1COC[C@H](C)N1c1cc(C2(S(=O)(=O)c3ccccc3)CC2)nc(-c2ccc(NC(=O)NCC(F)F)cc2)n1 [Example 93d, 1-[4-[4-[1-(benzenesulfonyl)cyclopropyl]-6-[(3S,5S)-3,5-dimethylmorpholin-4-yl]pyrimidin-2-yl]phenyl]-3-(2,2-difluoroethyl)urea] | 9.09
4 | CNC(=O)Nc1ccc(-c2nc(N3CCOC[C@@H]3C)cc(C3(S(=O)(=O)C4CCOCC4)CC3)n2)cc1 [Example 94a, 3-methyl-1-[4-[4-[(3S)-3-methylmorpholin-4-yl]-6-[1-(oxan-4-ylsulfonyl)cyclopropyl]pyrimidin-2-yl]phenyl]urea] | 7.87
5 | C[C@H]1COCCN1c1cc(C2(S(=O)(=O)C3CCOCC3)CC2)nc(-c2ccc(NC(=O)Nc3cnn(C)c3)cc2)n1 [Example 94e, 1-[4-[4-[(3S)-3-methylmorpholin-4-yl]-6-[1-(oxan-4-ylsulfonyl)cyclopropyl]pyrimidin-2-yl]phenyl]-3-(1-methylpyrazol-4-yl)urea] | 7.87
6 | C[C@H]1COCCN1c1cc(C2(S(=O)(=O)c3ccc(F)c(Cl)c3)CC2)nc(-c2ccc(NC(=O)NCCO)cc2)n1 [Example 95c, 1-[4-[4-[1-(3-chloro-4-fluorophenyl)sulfonyl-cyclopropyl]-6-[(3S)-3-methylmorpholin-4-yl]pyrimidin-2-yl]phenyl]-3-(2-hydroxyethyl)urea] | 8.15
7 | C[C@H]1COCCN1c1cc(C2(S(=O)(=O)c3ccc(F)c(Cl)c3)CC2)nc(-c2ccc(NC(=O)NCCF)cc2)n1 [Example 95d, 1-[4-[4-[1-(3-chloro-4-fluorophenyl)sulfonyl-cyclopropyl]-6-[(3S)-3-methylmorpholin-4-yl]pyrimidin-2-yl]phenyl]-3-(2-fluoroethyl)urea] | 7.90
8 | C[C@H]1COCCN1c1cc(C2(S(=O)(=O)c3ccc(F)c(Cl)c3)CC2)nc(-c2ccc(NC(=O)NCC(F)F)cc2)n1 [Example 95e, 1-[4-[4-[1-(3-chloro-4-fluorophenyl)sulfonyl-cyclopropyl]-6-[(3S)-3-methylmorpholin-4-yl]pyrimi-din-2-yl]phenyl]-3-(2,2-difluoroethyl)urea] | 7.80
9 | C[C@H]1COCCN1c1cc(C2(S(=O)(=O)c3ccc(F)c(Cl)c3)CC2)nc(-c2ccc(NC(=O)Nc3cnn(C)c3)cc2)n1 [Example 95g, 1-[4-[4-[1-(3-chloro-4-fluorophenyl)sulfonyl-cyclopropyl]-6-[(3S)-3-methylmorpholin-4-yl]pyrimidin-2-yl]phenyl]-3-(1-methylpyrazol-4-yl)urea] | 7.79
10 | CNC(=O)Nc1ccc(-c2nc(N3CCOC[C@@H]3C)cc(C3(S(=O)(=O)c4ccc(NC)c(Cl)c4)CC3)n2)cc1 [Example 95h, 1-[4-[4-[1-(3-chloro-4-methylamino-phenyl)sulfonylcyclo-propyl]-6-[(3S)-3-methylmorpho-lin-4-yl]pyrimidin-2-yl]phenyl]-3-methylurea] | 7.89
11 | C[C@H]1COCCN1c1cc(C2(S(=O)(=O)c3ccc(NCCF)c(Cl)c3)CC2)nc(-c2ccc(NC(=O)NCCF)cc2)n1 [Example 95j, 1-[4-[4-[1-[3-chloro-4-(2-fluoroethyl-amino)phenyl]sulfonyl-cyclopropyl]-6-[(3S)-3-methylmorpho-lin-4-yl]pyrimidin-2-yl]phenyl]-3-(2-fluoroethyl)urea] | 7.88
12 | CCNC(=O)Nc1ccc(-c2nc(N3CCOC[C@@H]3C)cc(C3(S(=O)(=O)c4ccc(NCC)c(Cl)c4)CC3)n2)cc1 [Example 95k, 1-[4-[4-[1-(3-chloro-4-ethylamino-phenyl)sulfonylcyclopro-pyl]-6-[(3S)-3-methylmorpho-lin-4-yl]pyrimidin-2-yl]phenyl]-3-ethylurea] | 7.57

More lines, now with the values ahead:

Row | pIC50 | SMILES
13 | 8.30 | C[C@H]1COC[C@H](C)N1c1cc(C2(S(=O)(=O)c3ccccc3)CC2)nc(-c2ccc(NC(=O)NC3CC3)cc2)n1 [Example 93, 1-[4-[4-[1-(Benzenesulfonyl)cyclopropyl]-6-[(3S,5S)-3,5-dimethylmorpholin-4-yl]pyrimidin-2-yl]phenyl]-3-cyclopropylurea]
14 | 8.64 | C[C@H]1COC[C@H](C)N1c1cc(C2(S(=O)(=O)c3ccccc3)CC2)nc(-c2ccc(NC(=O)NCCO)cc2)n1 [Example 93b, 1-[4-[4-[1-(benzenesulfonyl)cyclopropyl]-6-[(3S,5S)-3,5-dimethylmorpholin-4-yl]pyrimidin-2-yl]phenyl]-3-(2-hydroxyethyl)urea]
15 | 8.27 | C[C@H]1COC[C@H](C)N1c1cc(C2(S(=O)(=O)c3ccccc3)CC2)nc(-c2ccc(NC(=O)Nc3cnn(C)c3)cc2)n1 [Example 93e, 1-[4-[4-[1-(benzenesulfonyl)cyclopropyl]-6-[(3S,5S)-3,5-dimethylmorpholin-4-yl]pyrimidin-2-yl]phenyl]-3-(1-methylpyrazol-4-yl)urea]
16 | 7.91 | CCNC(=O)Nc1ccc(-c2nc(N3CCOC[C@@H]3C)cc(C3(S(=O)(=O)C4CCOCC4)CC3)n2)cc1 [Example 94b, 1-ethyl-3-[4-[4-[(3S)-3-methylmorpholin-4-yl]-6-[1-(oxan-4-ylsulfonyl)cyclopropyl]pyrimidin-2-yl]phenyl]urea]
17 | 7.93 | C[C@H]1COCCN1c1cc(C2(S(=O)(=O)C3CCOCC3)CC2)nc(-c2ccc(NC(=O)NC3CC3)cc2)n1 [Example 94c, 3-cyclopropyl-1-[4-[4-[(3S)-3-methylmorpholin-4-yl]-6-[1-(oxan-4-ylsulfonyl)cyclopropyl]pyrimidin-2-yl]phenyl]urea]
18 | 7.96 | C[C@H]1COCCN1c1cc(C2(S(=O)(=O)C3CCOCC3)CC2)nc(-c2ccc(NC(=O)NCCO)cc2)n1 [Example 94d, 3-(2-hydroxyethyl)-1-[4-[4-[(3S)-3-methylmorpholin-4-yl]-6-[1-(oxan-4-ylsulfonyl)cyclopropyl]pyrimidin-2-yl]phenyl]urea]
19 | 7.82 | C[C@H]1COCCN1c1cc(C2(S(=O)(=O)C3CCOCC3)CC2)nc(-c2ccc(NC(=O)NC3CCC3)cc2)n1 [Example 94f, 3-cyclobutyl-1-[4-[4-[(3S)-3-methylmorpholin-4-yl]-6-[1-(oxan-4-ylsulfonyl)cyclopropyl]pyrimidin-2-yl]phenyl]urea]
20 | 7.90 | CNC(=O)Nc1ccc(-c2nc(N3CCOC[C@@H]3C)cc(C3(S(=O)(=O)C4CCOC4)CC3)n2)cc1 (stereo partly drawn) [Example 94g, 3-methyl-1-[4-[4-[(3S)-3-methylmorpholin-4-yl]-6-[1-(oxolan-3-ylsulfonyl)cyclopropyl]pyrimidin-2-yl]phenyl]urea]
21 | 7.94 | CCNC(=O)Nc1ccc(-c2nc(N3CCOC[C@@H]3C)cc(C3(S(=O)(=O)C4CCOC4)CC3)n2)cc1 (stereo partly drawn) [Example 94h, 1-ethyl-3-[4-[4-[(3S)-3-methylmorpholin-4-yl]-6-[1-(oxolan-3-ylsulfonyl)cyclopropyl]pyrimidin-2-yl]phenyl]urea]
22 | 7.92 | C[C@H]1COCCN1c1cc(C2(S(=O)(=O)C3CCOC3)CC2)nc(-c2ccc(NC(=O)NC3CC3)cc2)n1 (stereo partly drawn) [Example 94i, 3-cyclopropyl-1-[4-[4-[(3S)-3-methylmorpholin-4-yl]-6-[1-(oxolan-3-ylsulfonyl)cyclopropyl]pyrimidin-2-yl]phenyl]urea]
23 | 8.22 | C[C@H]1COCCN1c1cc(C2(S(=O)(=O)C3CCOC3)CC2)nc(-c2ccc(NC(=O)NCCO)cc2)n1 (stereo partly drawn) [Example 94j, 3-(2-hydroxyethyl)-1-[4-[4-[(3S)-3-methylmorpholin-4-yl]-6-[1-(oxolan-3-ylsulfonyl)cyclopropyl]pyrimidin-2-yl]phenyl]urea]
24 | 7.97 | C[C@H]1COCCN1c1cc(C2(S(=O)(=O)C3CCOC3)CC2)nc(-c2ccc(NC(=O)Nc3cnn(C)c3)cc2)n1 (stereo partly drawn) [Example 94k, 1-[4-[4-[(3S)-3-methylmorpholin-4-yl]-6-[1-(oxolan-3-ylsulfonyl)cyclopropyl]pyrimidin-2-yl]phenyl]-3-(1-methylpyrazol-4-yl)urea]
25 | 7.86 | CNC(=O)Nc1ccc(-c2nc(N3CCOC[C@@H]3C)cc(C3(S(=O)(=O)c4ccc(F)c(Cl)c4)CC3)n2)cc1 [Example 95a, 1-[4-[4-[1-(3-chloro-4-fluorophenyl)sulfonyl-cyclopropyl]-6-[(3S)-3-methylmorpholin-4-yl]pyrimidin-2-yl]phenyl]-3-methylurea]
26 | 7.72 | C[C@H]1COCCN1c1cc(C2(S(=O)(=O)c3ccc(F)c(Cl)c3)CC2)nc(-c2ccc(NC(=O)NC3CC3)cc2)n1 [Example 95b, 1-[4-[4-[1-(3-chloro-4-fluorophenyl)sulfonyl-cyclopropyl]-6-[(3S)-3-methylmorpholin-4-yl]pyrimidin-2-yl]phenyl]-3-cyclopropylurea]
27 | 7.96 | CCNC(=O)Nc1ccc(-c2nc(N3CCOC[C@@H]3C)cc(C3(S(=O)(=O)c4ccc(F)c(Cl)c4)CC3)n2)cc1 [Example 95f, 3-[4-[4-[1-(3-chloro-4-fluorophenyl)sulfonyl-cyclopropyl]-6-[(3S)-3-methylmorpholin-4-yl]pyrimidin-2-yl]phenyl]-1-ethylurea]
28 | 8.32 | C[C@H]1COCCN1c1cc(C2(S(=O)(=O)c3ccc(NCCO)c(Cl)c3)CC2)nc(-c2ccc(NC(=O)NCCO)cc2)n1 [Example 95i, 1-[4-[4-[1-[3-chloro-4-(2-hydroxyethylamino)phenyl]sulfonylcyclopropyl]-6-[(3S)-3-methylmorpho-lin-4-yl]pyrimidin-2-yl]phenyl]-3-(2-hydroxyethyl)urea]
